For this assay, the system named is Plasmodium falciparum. Briefly: GSK_TCMDC: Inhibition of Plasmodium falciparum 3D7 in whole erythrocytes, using parasite LDH activity as an index of growth. The class given is functional, organism-based. Particulars: Plasmodium falciparum, 3D7.
`Cc1ccc(Nc2nc(N/N=C/c3cccc(O)c3)nc(Nc3ccc([N+](=O)[O-])cc3)n2)cc1C`: the XC50 was determined as 735 nM.

The compound `C[C@@H](CC1CCCCC1)OC(=O)N[C@H]1CCN(C#N)C1` had an XC50 of 870 nM.

`CN=C(S)NN=C(C)c1ccccn1` returned an XC50 of 272 nM.

In turn, `Cc1cc(NC(=O)NCCN2CCC(NC(=O)c3ccc(F)cc3)CC2)c2ccccc2n1` had an XC50 of 331 nM.

Compound `CS(=O)(=O)c1ccc(-n2nc(C(F)(F)F)cc2-c2ccc(C=NOCC(=O)O)o2)cc1` displayed an XC50 of 976 nM.

In turn, `O=C(c1ccc(-c2cccc(-c3nc4cc(C(F)(F)F)ccc4[nH]3)c2)cc1)N1CCCCC1CN1CCC(O)C1` (stereo unspecified) came in with an XC50 of 652 nM.

On to `Cn1cncc1C(=O)Nc1cccc(-c2csc(-c3nc4ccccc4[nH]3)c2)c1`, for which the XC50 was 447 nM.

Take `CC1CNC(c2ccc(NC(=O)Nc3ccc(C4=NC(C)CN4)cc3)cc2)=N1` (stereo unspecified): the XC50 was 379 nM.

In turn, `COc1ccc(CCOc2c(C)nc(N)nc2N)cc1OC` yielded an XC50 of 69.6 nM.

Regarding `Cc1cc(=O)c(-c2ccc(OCCSc3ccc(C(F)(F)F)cn3)cc2)c(C)[nH]1`, the XC50 came out at 527 nM.

Compound `Cc1cc(Nc2ncc(C#N)c(Nc3ccccc3C(N)=O)n2)ccc1N1CCN(C)CC1` yielded an XC50 of 8.63 nM.

For the compound `CC(O)C1CCCCN1C(=O)c1cccc(-c2ccc(-c3nc4ccccc4[nH]3)s2)c1` (stereo unspecified), the XC50 worked out at 798 nM.

`Cc1ccc(F)cc1S(=O)(=O)NCC(C)c1ccc(NC(=O)Nc2cccc(F)c2)cc1` (stereo unspecified) yielded an XC50 of 973 nM.

`CCOC(=O)C(C(=O)OCC)c1nc(C)ns1`: the XC50 was 471 nM.

In the case of `CCCCOc1c(CCC)cc(Cc2cnc(N)nc2N)cc1CCC`, the XC50 stood at 629 nM.

`FC(F)(F)c1ccc2[nH]ccc(=NN=Cc3ccccc3Cl)c2c1` had an XC50 of 799 nM.

For `CC(NC(=O)c1ccc(O)c(-c2ccc(Cl)c(Cl)c2)c1)C(=O)NCCN1CCCCC1` (stereo unspecified), the XC50 came to 868 nM.

Regarding `N=C(N)NC(=O)Nc1cc(Cl)c(Cl)c(C(F)(F)F)c1`, the XC50 was 611 nM.

Compound `CO/C(=C\C=C\c1cc2cc(Cl)ccc2[nH]1)C(=O)NCCCN1CCN(c2cc(Cl)ccc2OC)CC1` yielded an XC50 of 877 nM.

In turn, `CCCC(=O)Nc1ccc(OCCN(Cc2ccccc2OC(F)(F)F)c2ccc(C(F)(F)F)c(C#N)c2)cc1` returned an XC50 of 788 nM.

As for `COc1ccc2nc(N)nc(C)c2c1`, the XC50 stood at 927 nM.

`CC(NC(=O)c1ccc(O)c(-c2ccc(Cl)c(Cl)c2)c1)C(=O)NCCN1CCOCC1` (stereo unspecified) gave an XC50 of 959 nM.

Turning to `CC(C)(C(=O)Nc1ccc(C2CCC(NCC3CC3)CC2)c(Cl)c1)c1cccc(OC(F)F)c1` (stereo unspecified), the XC50 amounted to 968 nM.

In turn, `N#Cc1cccc(C(O)CN(Cc2ccccc2)Cc2ccccc2)c1` (stereo unspecified) came in with an XC50 of 1270 nM.

On to `Cc1cc(F)ccc1Nc1nc(N(C)c2ccccc2)c2cccc(O)c2n1`, for which the XC50 came to 957 nM.

`CSc1ccc2ccccc2c1CNCCCCCCNCc1c(SC)ccc2ccccc12` showed an XC50 of 797 nM.

In turn, `CCN(CC)S(=O)(=O)c1cc(-c2ccc(=O)n(CC(=O)c3ccc(C)cc3)n2)ccc1C` had an XC50 of 895 nM.

`COc1cc2nc(NCC3CCN(c4nc(N)c5cc(OC)c(OC)cc5n4)CC3)nc(N)c2cc1OC` registered an XC50 of 776 nM.

In turn, `Cc1c2ccc(N(C)c3ccnc(Nc4ccc5c(c4)nc(NC(C)C)n5C)n3)cc2nn1C` yielded an XC50 of 159 nM.

`O=C(/C=C/c1ccc(Cl)c(Cl)c1)NCCCCCN1CCCN(C(=O)Nc2ccc(C(F)(F)F)cc2)CC1`: the XC50 came out at 688 nM.

As for `COc1cc(O)c2c(=O)c(OC)c(-c3cccc(Cl)c3OC3O[C@H](CO)[C@@H](O)[C@H](O)[C@H]3O)oc2c1OC` (stereo partly specified), the XC50 was 774 nM.

The compound `O=C(CSc1cccc[n+]1[O-])c1ccc(Cc2ncc(C(F)(F)F)cc2Cl)s1` gave an XC50 of 715 nM.

`COc1ccc2nccc([C@@H](O)CN3CCC(NC(=O)C(c4cc5ccccc5s4)N4CCN(c5ccccc5OC)CC4)CC3)c2c1` (stereo partly specified) yielded an XC50 of 160 nM.

In turn, `CN(C(=O)c1snnc1-c1ccccc1)C1CCN(CCCCCNC(=O)/C=C/c2ccc(Cl)c(Cl)c2)CC1` displayed an XC50 of 186 nM.

With `CC(=O)Nc1ccc(-c2nc3ccc(-c4nc5ccc(NC(C)=O)cc5[nH]4)cc3[nH]2)cc1`, the XC50 is 242 nM.

Consider `CC(O)c1cccc(-c2ccc(Nc3ccnc4cc(-c5nccs5)ccc34)cc2)c1` (stereo unspecified), for which the XC50 amounted to 1010 nM.

As for `N=C1N=C(N)NC2(CCCCC2)N1OCCCOc1cc(Cl)c(Cl)cc1Cl`, the XC50 was 3.2 nM.

`CN1CCN(c2cccc(-c3nnc(-c4cccc(OCC(=O)NCc5ccc(C(F)(F)F)cc5)c4)o3)c2)CC1` came in with an XC50 of 759 nM.

`CC(=O)N(C)C1CCN(Cc2ccc(-c3cccc(-c4nc5cc(F)ccc5[nH]4)c3)cc2)C1` (stereo unspecified) had an XC50 of 596 nM.

For `O=C(Nc1ccc([N+](=O)[O-])cc1)Nc1cc(C(F)(F)F)ccc1F`, the XC50 was 1070 nM.

In turn, `CCC(=O)OC(CCN(CC)CC)(c1ccccc1)c1ccccc1` gave an XC50 of 369 nM.

In turn, `CN(C)c1ccc(CN2CCC(NC(=O)c3ccc(-c4ccc(N(C)C)cc4)s3)CC2)cc1` returned an XC50 of 1070 nM.

For `COc1cccc(C(=O)NC(c2ccc(Cl)cc2Cl)c2cc(Cl)c3cccnc3c2O)c1` (stereo unspecified), the XC50 came to 454 nM.

Regarding `COc1ccc(NC(=O)/C=C/c2ccc(-c3ccc(-c4noc(C)n4)cc3)cc2)cc1OCCN(C)C`, the XC50 worked out at 1370 nM.

For the compound `O=C1CCCN1CCCNCc1ccc(-c2cccc(-c3nc4cc(F)ccc4[nH]3)c2)cc1`, the XC50 amounted to 659 nM.

As to `CCCCCCC1(C)N=C(N)N=C(N)C1c1ccc(Cl)c(Cl)c1` (stereo unspecified), the XC50 stood at 132 nM.

Compound `CCC1CCCCN1S(=O)(=O)c1ccc(OC)c(N2CCN(C(=O)C(Cl)(Cl)Cl)CC2)c1` (stereo unspecified) showed an XC50 of 1120 nM.

The compound `CCN1CCC(N(Cc2ccc(-c3ccc(C(F)(F)F)cc3)cc2)C(=O)CCCCn2c(CCc3cccc(F)c3F)nc(=O)c3ccccc32)CC1` registered an XC50 of 989 nM.

`O=C(Nc1cccc(CN2CCCN(Cc3cccc(Cl)c3)CC2)c1)c1ccc(Br)cc1` returned an XC50 of 944 nM.

The compound `O=C(Cn1c(SCc2cccc(F)c2F)cc(=O)c2ccccc21)N(Cc1ccc(-c2ccc(C(F)(F)F)cc2)cc1)C1CCN(CCO)CC1` gave an XC50 of 1250 nM.

In the case of `CC(=O)Nc1cccc(CNCc2ccc(-c3cnc(N4CCCC(C)(C)C4)nc3)cc2)c1`, the XC50 was 822 nM.

`COc1ccc2nccc([C@@H](O)CN3CCC(NCc4cnc5c(c4)NC(=O)CS5)CC3)c2c1` displayed an XC50 of 860 nM.

`CN1CCN=C1c1ccc(NC(=O)Nc2ccc(C3=NCCN3C)cc2)cc1`: the XC50 was found to be 379 nM.

Compound `N#Cc1cccc(NC(=O)Nc2ccc(-c3ccc(-c4nc5cc(C(F)(F)F)ccc5[nH]4)cc3)cc2)c1` returned an XC50 of 145 nM.

The compound `CCCCCC(C)C(C)c1cc(O)c2c(c1)OC(C)(C)CC2(O)c1ccccn1` (stereo unspecified) showed an XC50 of 741 nM.

As to `Cc1noc(C)c1-c1cccc(CNCc2ccc(-c3ccc(-c4nc5cc(F)ccc5[nH]4)cc3)cc2)c1`, the XC50 turned out to be 212 nM.

`CN(c1ccc(NC(=O)Nc2cccc(Cl)c2)cc1)c1ccnc(N)n1` displayed an XC50 of 628 nM.

As to `CN1CCCN(Cc2ccc(-c3cccc(NC(=O)c4cccc(C#N)c4)c3)cc2)CC1`, the XC50 turned out to be 651 nM.

Compound `Cc1cccc2nc(-c3ccc(-c4cccc(NC(=O)CN5CCN(C)CC5)c4)s3)[nH]c12` had an XC50 of 826 nM.

`O=C(NCc1ccc(Cl)c(Cl)c1)c1ccc(C2CCN(Cc3ccc4[nH]cnc4c3)CC2)cc1` came in with an XC50 of 957 nM.

In turn, `Cc1ccc2nc(-c3ccc(C(=O)NC4CCN(Cc5ccccc5)CC4)s3)[nH]c2c1` had an XC50 of 1010 nM.

Turning to `CCCCCOc1ccc(N2C(N)=NC(N)=NC2(C)C)cc1`, the XC50 is 205 nM.

The compound `O=C(Nc1cccc(CN2CCCN(Cc3ccc4c(c3)OCO4)CC2)c1)c1ccc(Cl)c(Cl)c1` registered an XC50 of 893 nM.

Regarding `CC(C)CC(NC(=O)c1cccc(OCCN2CCOCC2)c1)C(=O)NC(/C=N/NC(=O)c1ccccc1)CCc1ccccc1` (stereo unspecified), the XC50 worked out at 251 nM.

Consider `Cc1ccc2[nH]c(C)cc(=NN=Cc3cccc(F)c3)c2c1`, for which the XC50 came to 631 nM.

In the case of `Cc1cccc2nc(-c3ccc(-c4cccc(NC(=O)c5cncn5C)c4)s3)[nH]c12`, the XC50 was 645 nM.

In turn, `COc1ccc2nccc([C@@H](O)CN3CCC(NC(=O)c4ccc5cc[nH]c5c4)CC3)c2c1` had an XC50 of 969 nM.

The compound `Oc1ccc(-c2ccccc2)cc1CN1CCCCCC1` came in with an XC50 of 1170 nM.

`Cc1ccc(C(=O)Nc2cccc(CN3CCCN(Cc4ccc(O)cc4)CC3)c2)s1` yielded an XC50 of 1000 nM.

For `CC(C)C1c2ccc(O)cc2CC2C(=O)N(C3CCCCC3)C(=O)N21` (stereo unspecified), the XC50 is 884 nM.

Turning to `COc1cc(NC2=C(c3ccccc3)C(=O)c3ccccc32)ccn1`, the XC50 was determined as 359 nM.

With `CCC(N)(C#Cc1ccc(-c2c(C)[nH]c(C)c(Br)c2=O)cc1)CC`, the XC50 worked out at 41.5 nM.

With `Cn1cncc1-c1ccc2c(-c3ccsc3)cnc(N)c2c1`, the XC50 turned out to be 850 nM.

As to `COc1ccc(-c2cc(C(=O)Nc3ccc(CCCN(C)Cc4ccc(OC)c(OC)c4)cc3)c3ccccc3n2)cc1`, the XC50 was 698 nM.

`Cc1cc(OCC2CCCO2)c2cc(NC(=O)C(=O)Nc3ccc4nc(C)cc(OCC5CCCO5)c4c3)ccc2n1` (stereo unspecified) returned an XC50 of 804 nM.

As to `COc1csc2cc(Br)ccc12`, the XC50 turned out to be 861 nM.

On to `O=C(/C=C/c1ccc(Cl)c(Cl)c1)NC1CCN(Cc2ccc(O)cc2)C1` (stereo unspecified), for which the XC50 was found to be 952 nM.

Compound `CO[C@H](C)[C@H](NC(=O)[C@H](CC(C)C)[C@H](CCC(F)(F)F)N(O)C=O)C(=O)Nc1nccs1` came in with an XC50 of 110 nM.

With `Oc1cc(Nc2ccnc3cc(-c4cccc(CN5CCOCC5)c4)ccc23)c(F)cc1Cl`, the XC50 came to 207 nM.

As to `CC(O)C1CCCCN1C(=O)c1ccc(-c2ccc(-c3nc4cc(F)ccc4[nH]3)cc2)cc1` (stereo unspecified), the XC50 worked out at 435 nM.

On to `CN1CC(c2ccccc2)c2cc(O)c(CN3CCCCC3)cc2CC1Cc1ccccc1` (stereo unspecified), for which the XC50 worked out at 176 nM.

The compound `O=C1c2cc(I)ccc2SC1c1ccccc1` (stereo unspecified) yielded an XC50 of 817 nM.

The compound `COc1ccc2nccc([C@@H](O)CN3CCC(NCc4nc5c(cc4Cl)OCC(=O)N5)C(F)C3)c2c1` (stereo partly specified) displayed an XC50 of 1320 nM.

Compound `O=C(CCc1c[nH]cn1)Nc1ccc(-c2ccc(-c3nc4cc(F)ccc4[nH]3)cc2)cc1` yielded an XC50 of 693 nM.

`c1ccc2c(C3CCN(CCCCOc4ccc5c(c4)CCN(CC4CC4)CC5)CC3)c[nH]c2c1` yielded an XC50 of 982 nM.

Take `CC[C@H]1CN2CC[C@@H]1C[C@@H]2[C@@H](O)c1cc(-c2ccc(F)cc2)nc2ccc(OC)cc12`: the XC50 was 114 nM.

The values are drawn from ChEMBL document CHEMBL1157539, “Thousands of chemical starting points for antimalarial lead identification” (Nature, 2010).
